Test results reported in PMC7156458, “Synthetic biology based construction of biological activity-related library of fungal decalin-containing diterpenoid pyrones” (Nature Communications, 2020).

Molecular target: Aβ42 (Homo sapiens, UniProt P05067)
Test: Th-T (thioflavin-T) assay of Aβ42 aggregation
Type: biochemical

Chain of Aβ42 (P05067 672-713): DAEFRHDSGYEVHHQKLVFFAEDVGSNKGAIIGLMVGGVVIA

C=C1CCC2C(C)(CCC=C(C)C)C(O)CCC2(C)C1Cc1c(OC)oc(CO)c(C)c1=O (stereo not drawn) [Compound 12]
Fig. 7a Th-T reading, mean of three wells (column suffix _20, reading M101): 2.081 | Fig. 7a Th-T reading, mean of three wells (column suffix _20, reading M102): 2.083 | Fig. 7a Th-T reading, mean of three wells (column suffix _20, reading M103): 2.082 | Fig. 7a Th-T reading, mean of three wells (column suffix _20, reading M104): 2.11 | Fig. 7a Th-T reading, mean of three wells (column suffix _20, reading M105): 2.097 | Fig. 7a Th-T reading, mean of three wells (column suffix _20, reading M106): 2.107 | Th-T fluorescence, mean of three wells (Fig. 7a) (column suffix _50, measurement M19): 1.719 | Th-T fluorescence, mean of three wells (Fig. 7a) (column suffix _50, measurement M20): 1.709 | Th-T fluorescence, mean of three wells (Fig. 7a) (column suffix _50, measurement M21): 1.707 | Th-T fluorescence, mean of three wells (Fig. 7a) (column suffix _50, measurement M22): 1.694 | Th-T fluorescence, mean of three wells (Fig. 7a) (column suffix _50, measurement M23): 1.672 | Th-T fluorescence, mean of three wells (Fig. 7a) (column suffix _50, measurement M24): 1.656 | Th-T fluorescence, mean of three wells (Fig. 7a) (column suffix _50, measurement M25): 1.634 | Th-T fluorescence, mean of three wells (Fig. 7a) (column suffix _50, measurement M26): 1.64 | Th-T fluorescence, mean of three wells (Fig. 7a) (column suffix _50, measurement M27): 1.6183 | Th-T fluorescence, mean of three wells (Fig. 7a) (column suffix _50, measurement M28): 1.623 | Th-T fluorescence, mean of three wells (Fig. 7a) (column suffix _50, measurement M29): 1.606 | Th-T assay signal, mean of three wells (Fig. 7a) (column suffix _50, reading M1): 1.526 | Th-T assay signal, mean of three wells (Fig. 7a) (column suffix _50, reading M2): 1.765 | Th-T assay signal, mean of three wells (Fig. 7a) (column suffix _50, reading M3): 2.409 | Th-T assay signal, mean of three wells (Fig. 7a) (column suffix _50, reading M4): 2.663 | Th-T assay signal, mean of three wells (Fig. 7a) (column suffix _50, reading M5): 2.734 | Th-T assay signal, mean of three wells (Fig. 7a) (column suffix _50, reading M6): 2.555 | Th-T assay signal, mean of three wells (Fig. 7a) (column suffix _50, reading M7): 2.454 | Th-T assay signal, mean of three wells (Fig. 7a) (column suffix _50, reading M8): 2.181 | Th-T assay signal, mean of three wells (Fig. 7a) (column suffix _50, reading M9): 2.034 | Th-T assay signal, mean of three wells (Fig. 7a) (column suffix _50, reading M10): 1.99 | Th-T assay signal, mean of three wells (Fig. 7a) (column suffix _50, reading M11): 1.977 | Th-T assay signal, mean of three wells (Fig. 7a) (column suffix _50, reading M12): 1.8801 | Th-T assay signal, mean of three wells (Fig. 7a) (column suffix _50, reading M13): 1.841 | Th-T assay signal, mean of three wells (Fig. 7a) (column suffix _50, reading M14): 1.819 | Th-T assay signal, mean of three wells (Fig. 7a) (column suffix _50, reading M15): 1.788 | Th-T assay signal, mean of three wells (Fig. 7a) (column suffix _50, reading M16): 1.774 | Th-T assay signal, mean of three wells (Fig. 7a) (column suffix _50, reading M17): 1.76 | Th-T assay signal, mean of three wells (Fig. 7a) (column suffix _50, reading M18): 1.746 | Fig. 7a Th-T reading, mean of three wells (column suffix _50, reading M85): 1.4 | Fig. 7a Th-T reading, mean of three wells (column suffix _50, reading M86): 1.399 | Fig. 7a Th-T reading, mean of three wells (column suffix _50, reading M87): 1.399 | Fig. 7a Th-T reading, mean of three wells (column suffix _50, reading M88): 1.392 | Fig. 7a Th-T reading, mean of three wells (column suffix _50, reading M89): 1.396 | Fig. 7a Th-T reading, mean of three wells (column suffix _50, reading M90): 1.401 | Fig. 7a Th-T reading, mean of three wells (column suffix _50, reading M91): 1.4 | Fig. 7a Th-T reading, mean of three wells (column suffix _50, reading M92): 1.405 | Fig. 7a Th-T reading, mean of three wells (column suffix _50, reading M93): 1.424 | Fig. 7a Th-T reading, mean of three wells (column suffix _50, reading M94): 1.4149 | Fig. 7a Th-T reading, mean of three wells (column suffix _50, reading M95): 1.419 | Fig. 7a Th-T reading, mean of three wells (column suffix _50, reading M96): 1.4015 | Fig. 7a Th-T reading, mean of three wells (column suffix _50, reading M97): 1.401 | Fig. 7a Th-T reading, mean of three wells (column suffix _50, reading M98): 1.397 | Fig. 7a Th-T reading, mean of three wells (column suffix _50, reading M99): 1.397 | Fig. 7a Th-T reading, mean of three wells (column suffix _50, reading M100): 1.41 | Fig. 7a Th-T reading, mean of three wells (column suffix _50, reading M101): 1.399 | Fig. 7a Th-T reading, mean of three wells (column suffix _50, reading M102): 1.3937 | Fig. 7a Th-T reading, mean of three wells (column suffix _50, reading M103): 1.417 | Fig. 7a Th-T reading, mean of three wells (column suffix _50, reading M104): 1.419 | Fig. 7a Th-T reading, mean of three wells (column suffix _50, reading M105): 1.42 | Fig. 7a Th-T reading, mean of three wells (column suffix _50, reading M106): 1.412 | Th-T fluorescence, mean of three wells (compound at 10, reading M41 of time course): 3.264 | Th-T fluorescence, mean of three wells (compound at 10, reading M42 of time course): 3.266 | Th-T fluorescence, mean of three wells (compound at 10, reading M43 of time course): 3.271 | Th-T fluorescence, mean of three wells (compound at 10, reading M44 of time course): 3.34 | Th-T fluorescence, mean of three wells (compound at 10, reading M45 of time course): 3.373 | Th-T fluorescence, mean of three wells (compound at 10, reading M46 of time course): 3.378 | Th-T fluorescence, mean of three wells (compound at 10, reading M47 of time course): 3.37 | Th-T fluorescence, mean of three wells (compound at 10, reading M48 of time course): 3.386 | Th-T fluorescence, mean of three wells (compound at 10, reading M49 of time course): 3.382 | Th-T fluorescence, mean of three wells (compound at 10, reading M50 of time course): 3.418 | Th-T fluorescence, mean of three wells (compound at 10, reading M51 of time course): 3.408 | Th-T fluorescence, mean of three wells (compound at 10, reading M52 of time course): 3.423 | Th-T fluorescence, mean of three wells (compound at 10, reading M53 of time course): 3.4353 | Th-T fluorescence, mean of three wells (compound at 10, reading M54 of time course): 3.443 | Th-T fluorescence, mean of three wells (compound at 10, reading M55 of time course): 3.439 | Th-T fluorescence, mean of three wells (compound at 10, reading M56 of time course): 3.46 | Th-T fluorescence, mean of three wells (compound at 10, reading M57 of time course): 3.454 | Th-T fluorescence, mean of three wells (compound at 10, reading M58 of time course): 3.457 | Th-T fluorescence, mean of three wells (compound at 10, reading M59 of time course): 3.451 | Th-T fluorescence, mean of three wells (compound at 10, reading M60 of time course): 3.452 | Th-T fluorescence, mean of three wells (compound at 10, reading M61 of time course): 3.431 | Th-T fluorescence, mean of three wells (compound at 10, reading M62 of time course): 3.428 | Th-T fluorescence, mean of three wells (compound at 20, reading M41 of time course): 2.229 | Th-T fluorescence, mean of three wells (compound at 20, reading M42 of time course): 2.216 | Th-T fluorescence, mean of three wells (compound at 20, reading M43 of time course): 2.22 | Th-T fluorescence, mean of three wells (compound at 20, reading M44 of time course): 2.199 | Th-T fluorescence, mean of three wells (compound at 20, reading M45 of time course): 2.1759 | Th-T fluorescence, mean of three wells (compound at 20, reading M46 of time course): 2.17 | Th-T fluorescence, mean of three wells (compound at 20, reading M47 of time course): 2.178 | Th-T fluorescence, mean of three wells (compound at 20, reading M48 of time course): 2.1654 | Th-T fluorescence, mean of three wells (compound at 20, reading M49 of time course): 2.1539 | Th-T fluorescence, mean of three wells (compound at 20, reading M50 of time course): 2.1392 | Th-T fluorescence, mean of three wells (compound at 20, reading M51 of time course): 2.1473 | Th-T fluorescence, mean of three wells (compound at 20, reading M52 of time course): 2.131 | Th-T fluorescence, mean of three wells (compound at 20, reading M53 of time course): 2.116 | Th-T fluorescence, mean of three wells (compound at 20, reading M54 of time course): 2.151 | Th-T fluorescence, mean of three wells (compound at 20, reading M55 of time course): 2.154 | Th-T fluorescence, mean of three wells (compound at 20, reading M56 of time course): 2.133 | Th-T fluorescence, mean of three wells (compound at 20, reading M57 of time course): 2.135 | Th-T fluorescence, mean of three wells (compound at 20, reading M58 of time course): 2.143 | Th-T fluorescence, mean of three wells (compound at 20, reading M59 of time course): 2.117 | Th-T fluorescence, mean of three wells (compound at 20, reading M60 of time course): 2.117 | Th-T fluorescence, mean of three wells (compound at 20, reading M61 of time course): 2.0819 | Th-T fluorescence, mean of three wells (compound at 20, reading M62 of time course): 2.098 | Th-T fluorescence, mean of three wells (compound at 50, reading M41 of time course): 1.5174 | Th-T fluorescence, mean of three wells (compound at 50, reading M42 of time course): 1.513 | Th-T fluorescence, mean of three wells (compound at 50, reading M43 of time course): 1.502 | Th-T fluorescence, mean of three wells (compound at 50, reading M44 of time course): 1.5 | Th-T fluorescence, mean of three wells (compound at 50, reading M45 of time course): 1.494 | Th-T fluorescence, mean of three wells (compound at 50, reading M46 of time course): 1.488 | Th-T fluorescence, mean of three wells (compound at 50, reading M47 of time course): 1.489 | Th-T fluorescence, mean of three wells (compound at 50, reading M48 of time course): 1.494 | Th-T fluorescence, mean of three wells (compound at 50, reading M49 of time course): 1.481 | Th-T fluorescence, mean of three wells (compound at 50, reading M50 of time course): 1.475 | Th-T fluorescence, mean of three wells (compound at 50, reading M51 of time course): 1.492 | Th-T fluorescence, mean of three wells (compound at 50, reading M52 of time course): 1.492 | Th-T fluorescence, mean of three wells (compound at 50, reading M53 of time course): 1.469
